Test results taken from publication PMC12207590, “Substrate Specificity of the Organic Cation Transporters MATE1 and MATE2K and Functional Overlap with OCT1 and OCT2” (Journal of Medicinal Chemistry, 2025).
Read-outs that look alike come from different tables or passages of the source.

Key:
[1] = molecular target: T1, MATE1 (Homo sapiens, UniProt Q96FL8); test: Uptake ratio in MATE1-overexpressing HEK293 cells vs empty vector (2.5 μM, 1 min, HPLC-MS/MS); format: cell-based
T1 sequence (Q96FL8 1-570): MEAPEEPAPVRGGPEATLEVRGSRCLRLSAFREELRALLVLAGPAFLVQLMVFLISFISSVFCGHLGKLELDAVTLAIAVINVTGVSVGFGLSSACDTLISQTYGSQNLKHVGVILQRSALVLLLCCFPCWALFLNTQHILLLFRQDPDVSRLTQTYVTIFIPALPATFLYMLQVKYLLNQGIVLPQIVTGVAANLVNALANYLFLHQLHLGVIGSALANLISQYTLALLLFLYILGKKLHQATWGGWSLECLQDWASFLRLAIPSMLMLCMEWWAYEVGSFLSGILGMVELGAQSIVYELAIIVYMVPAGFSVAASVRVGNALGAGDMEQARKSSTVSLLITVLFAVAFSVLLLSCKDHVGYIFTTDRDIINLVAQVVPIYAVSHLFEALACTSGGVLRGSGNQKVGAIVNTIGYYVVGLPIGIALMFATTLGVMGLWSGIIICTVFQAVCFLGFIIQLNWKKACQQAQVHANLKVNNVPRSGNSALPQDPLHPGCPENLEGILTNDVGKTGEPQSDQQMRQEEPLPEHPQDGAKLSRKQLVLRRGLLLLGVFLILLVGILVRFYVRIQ

[2] = molecular target: MATE2K (Homo sapiens, UniProt Q86VL8); test: Uptake ratio in MATE2K-overexpressing HEK293 cells vs empty vector (2.5 μM, 1 min, HPLC-MS/MS); format: cell-based
[3] = fold uptake over empty vector, 2.5 μM, 1 min
[4] = mean ratio of uptake in MATE1-overexpressing HEK293 cells vs empty vector, 2.5 μM, 1 min
[5] = mean ratio of uptake in MATE2K-overexpressing HEK293 cells vs empty vector, 2.5 μM, 1 min

Sequence of MATE2K (Q86VL8 1-566 isoform Q86VL8-3): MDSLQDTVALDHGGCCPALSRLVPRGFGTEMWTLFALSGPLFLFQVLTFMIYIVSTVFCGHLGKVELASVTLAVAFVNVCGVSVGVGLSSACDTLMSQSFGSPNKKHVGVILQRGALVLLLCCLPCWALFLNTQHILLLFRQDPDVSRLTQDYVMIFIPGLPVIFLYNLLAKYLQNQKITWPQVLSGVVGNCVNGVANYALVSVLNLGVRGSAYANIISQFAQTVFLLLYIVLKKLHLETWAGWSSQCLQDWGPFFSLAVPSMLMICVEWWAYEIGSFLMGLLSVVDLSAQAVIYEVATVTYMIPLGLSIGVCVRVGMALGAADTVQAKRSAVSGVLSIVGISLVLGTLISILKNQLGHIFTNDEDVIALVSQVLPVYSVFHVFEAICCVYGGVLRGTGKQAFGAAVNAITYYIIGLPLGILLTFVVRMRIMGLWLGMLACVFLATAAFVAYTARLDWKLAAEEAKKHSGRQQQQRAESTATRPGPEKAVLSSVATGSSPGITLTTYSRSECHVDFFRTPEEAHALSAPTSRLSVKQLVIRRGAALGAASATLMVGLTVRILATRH

Row | MATE1 ratio [1, 3] | MATE1 (uptake ratio) [1, 4] | MATE2K ratio [2, 3] | MATE2 (uptake ratio) [2, 5] | SMILES | further results
1 | 1.00 | 1 | 1.32 | 1.32 | Nc1c(Br)cc(Br)cc1CN[C@H]1CC[C@H](O)CC1 [Ambroxol] | –
2 | 8.46 | 8.46 | 7.40 | 7.4 | CCN1CCCC1CNC(=O)c1cc(S(=O)(=O)CC)c(N)cc1OC [Amisulpride (R), Amisulpride] | –
3 | 13.70 | 13.7 | 7.93 | 7.93 | CCN1CCCC1CNC(=O)c1cc(S(=O)(=O)CC)c(N)cc1OC [Amisulpride (S), Amisulpride] | –
4 | 1.32 | 1.32 | 1.33 | 1.33 | Clc1ccc2c(c1)C(N1CCNCC1)=Nc1ccccc1O2 [Amoxapine] | –
5 | 1.82 | 1.82 | 0.67 | 0.67 | CC1(C)S[C@@H]2[C@H](NC(=O)[C@H](N)c3ccc(O)cc3)C(=O)N2[C@H]1C(=O)O [Amoxicillin] | –
6 | 1.24 | 1.24 | 1.15 | 1.15 | COc1ccc(-n2nc(C(N)=O)c3c2C(=O)N(c2ccc(N4CCCCC4=O)cc2)CC3)cc1 [Apixaban] | –
7 | 1.05 | 1.05 | 1.02 | 1.02 | CN1CCc2cccc3c2[C@H]1Cc1ccc(O)c(O)c1-3 [Apomorphine] | –
8 | 40.20 | 40.2 | 16.29 | 16.29 | N=C(N)NCCCCNC(=N)N [Arcaine, 1,4-diguanidinobutane] | MATE1 ratio ([1]; fold uptake over empty vector, 2.5 μM, 1 min, listed as arcaine): 40
9 | 1.16 | 1.16 | 1.03 | 1.03 | CNCC[C@@H](Oc1ccccc1C)c1ccccc1 [Atomoxetine (S), Atomoxetine] | –
10 | 1.13 | 1.13 | 1.10 | 1.1 | COc1ccc(CC2c3cc(OC)c(OC)cc3CC[N+]2(C)CCC(=O)OCCCCCOC(=O)CC[N+]2(C)CCc3cc(OC)c(OC)cc3C2Cc2ccc(OC)c(OC)c2)cc1OC (stereo not shown) [Atracurium] | –
11 | 1.45 | 1.45 | 1.05 | 1.05 | NCC(CC(=O)O)c1ccc(Cl)cc1 (stereo not shown) [Baclofen] | –
12 | 1.52 | 1.52 | 1.21 | 1.21 | CN(C)C(=O)Oc1cc(OC(=O)N(C)C)cc(C(O)CNC(C)(C)C)c1 (stereo not shown) [Bambuterol] | –
13 | 0.82 | 0.82 | 1.04 | 1.04 | CCS(=O)(=O)N1CC(CC#N)(n2cc(-c3ncnc4[nH]ccc34)cn2)C1 [Baricitinib] | MATE1 ratio in this study ([1]; Table S1, 2.5 μM, 1 min): 0.82; MATE2K ratio in this study ([2]; Table S1, 2.5 μM, 1 min): 1.04
14 | 1.39 | 1.39 | 1.38 | 1.38 | CC(=O)c1cc2cccc(OCC(O)CNC(C)C)c2o1 (stereo not shown) [Befunolol] | –
15 | 25.63 | 25.63 | 4.52 | 4.52 | CC[N+](CC)(CC)Cc1ccccc1 [Benzyltriethylammonium] | –
16 | 1.37 | 1.37 | 1.43 | 1.43 | CC(C)NCC(O)COc1ccc(CCOCC2CC2)cc1 (stereo not shown) [Betaxolol] | –
17 | 0.23 | 0.23 | 0.97 | 0.97 | CC(C[N+](C)(C)C)OC(N)=O (stereo not shown) [Bethanechol] | –
18 | 1.17 | 1.17 | 1.31 | 1.31 | Cc1ccc(C23CNCC2C3)cc1 (stereo not shown) [Bicifadine] | –
19 | 0.38 | 0.38 | 0.57 | 0.57 | Cc1ccc(C(=O)Oc2ccc(C(O)CNC(C)(C)C)cc2OC(=O)c2ccc(C)cc2)cc1 (stereo not shown) [Bitolterol] | –
20 | 1.20 | 1.2 | 1.10 | 1.1 | CC(C)C[C@H](NC(=O)[C@H](Cc1ccccc1)NC(=O)c1cnccn1)B(O)O [Bortezomib] | –

Row | MATE1 ratio [1, 3] | MATE1 (uptake ratio) [1, 4] | MATE2K ratio [2, 3] | MATE2 (uptake ratio) [2, 5] | SMILES | further results
21 | – | – | – | – | COc1cc2c(cc1OC)[C@@]13CCN4CC5=CCO[C@H]6CC(=O)N2[C@H]1[C@H]6[C@H]5C[C@H]43 [Brucine] | MATE1 (uptake ratio) [1]: 1.13; MATE1 ratio [1]: 1.13; MATE2 (uptake ratio) [2]: 1.3; MATE2K ratio [2]: 1.30
22 | – | – | – | – | CCCCNC(=N)NC(=N)N [Buformin] | MATE1 (uptake ratio) [1]: 24.8; MATE1 ratio [1]: 24.80; MATE2 (uptake ratio) [2]: 2.37; MATE2K ratio [2]: 2.37
23 | 2.02 | 2.02 | 1.18 | 1.18 | CCCCNc1cc(C(=O)O)cc(S(N)(=O)=O)c1Oc1ccccc1 [Bumetanide] | substrate of MATE1 ([1]; organic anions tested): substrates of MATE1
24 | 1.17 | 1.17 | 1.31 | 1.31 | CC(C)(C)NCC(O)COc1ccccc1C#N (stereo not shown) [Bunitrolol] | –
25 | – | – | – | – | CCCC[N+]1(C)[C@@H]2C[C@@H](OC(=O)[C@H](CO)c3ccccc3)C[C@H]1[C@@H]1O[C@@H]12 (stereo partly shown) [Butylscopolamine] | MATE1 (uptake ratio) [1]: 23.84; MATE1 ratio [1]: 23.84; MATE1 ratio in this study [1]: 23.84; MATE2 (uptake ratio) [2]: 1.7; MATE2K ratio [2]: 1.70; MATE2K ratio in this study [2]: 1.70
26 | 0.82 | 0.82 | 1.09 | 1.09 | CCCC(=O)OC(CC(=O)[O-])C[N+](C)(C)C (stereo not shown) [Butyrylcarnitine] | –
27 | – | – | – | – | NCCCCCN [Cadaverine] | MATE1 (uptake ratio) [1]: 0.23; MATE1 ratio [1]: 0.23; MATE2 (uptake ratio) [2]: 0.53; MATE2K ratio [2]: 0.53
28 | 1.18 | 1.18 | 0.99 | 0.99 | COc1cc(CNC(=O)CCCC/C=C/C(C)C)ccc1O [Capsaicin] | –
29 | – | – | – | – | C[N+](C)(C)C[C@H](O)CC(=O)[O-] [Carnitine] | MATE1 (uptake ratio) [1]: 1.16; MATE1 ratio [1]: 1.16; MATE2 (uptake ratio) [2]: 1.13; MATE2K ratio [2]: 1.13
30 | 0.18 | 0.18 | 1.03 | 1.03 | NCCC(=O)N[C@@H](Cc1cnc[nH]1)C(=O)O [Carnosine] | –
31 | 7.43 | 7.43 | 6.67 | 6.67 | CC(C)(C)NCC(O)COc1cccc2c1CCC(=O)N2 (stereo not shown) [Carteolol] | –
32 | 1.17 | 1.17 | 1.08 | 1.08 | COc1ccccc1OCCNCC(O)COc1cccc2[nH]c3ccccc3c12 [Carvedilol (R), Carvedilol] | –
33 | 1.19 | 1.19 | 1.18 | 1.18 | COc1ccccc1OCCNCC(O)COc1cccc2[nH]c3ccccc3c12 [Carvedilol (S), Carvedilol] | –
34 | 11.01 | 11.01 | 8.76 | 8.76 | CCN(CC)C(=O)Nc1ccc(OCC(O)CNC(C)(C)C)c(C(C)=O)c1 (stereo not shown) [Celiprolol] | –
35 | 1.59 | 1.59 | 1.35 | 1.35 | C[C@@H]1O[C@@]2(CS1)CN1CCC2CC1 [Cevimeline] | –
36 | 1.08 | 1.08 | 0.99 | 0.99 | [H]/N=C(\N/C(=N/[H])NCCCCCCNC(=N)NC(=N)Nc1ccc(Cl)cc1)Nc1ccc(Cl)cc1 [Chlorhexidine] | –
37 | 1.42 | 1.42 | 1.33 | 1.33 | CN(C)CCCN1c2ccccc2Sc2ccc(Cl)cc21 [Chlorpromazine] | –
38 | – | – | – | – | CC1(C)C[C@@H]1C(=O)N/C(=C\CCCCSC[C@H](N)C(=O)O)C(=O)O [Cilastatin] | MATE1 (uptake ratio) [1]: 1.13; MATE1 ratio [1]: 1.13; MATE2 (uptake ratio) [2]: 0.96; MATE2K ratio [2]: 0.96
39 | – | – | – | – | C=C[C@H]1CN2CC[C@H]1C[C@H]2[C@H](O)c1ccnc2ccccc12 [Cinchonidine] | MATE1 (uptake ratio) [1]: 1.16; MATE1 ratio [1]: 1.16; MATE2 (uptake ratio) [2]: 1.14; MATE2K ratio [2]: 1.14
40 | – | – | – | – | NC(=O)NCCC[C@H](N)C(=O)O [Citrulline] | MATE1 (uptake ratio) [1]: 0.77; MATE1 ratio [1]: 0.77; MATE2 (uptake ratio) [2]: 1.26; MATE2K ratio [2]: 1.26
